# Measurements taken from patent publication US5741811A, “Polythiophene anti-tumor agents” (Purdue Research Foundation, priority 1996, dated 1998).
# Experiments:
# [1] = test system: TBE cells (ras-transformed human bronchial epithelial cells); test: Selective cytotoxicity, ras-transformed cells (cell count); assay type: cell-based
# [2] = test system: NHBE cells (Normal human bronchial epithelial cells); test: Selective cytotoxicity, normal cells (cell count); assay type: cell-based
# [3] = test system: HCT-116 colon cancer cells; test: NCI human tumor cell line panel growth inhibition; assay type: cell-based
# SF-295 CNS cancer cells = test: NCI human tumor cell line panel growth inhibition; assay type: cell-based; conditions: read-out: Log10 GI50 (converted)
# SNB-19 CNS cancer cells = test: NCI human tumor cell line panel growth inhibition; assay type: cell-based; conditions: Homo sapiens, read-out: Log10 GI50 (converted)
# [4] = test system: NCI-H226 lung cancer cells; test: NCI human tumor cell line panel growth inhibition; assay type: cell-based
# TK-10 renal cancer cells = test: NCI human tumor cell line panel growth inhibition; assay type: cell-based
# [5] = test system: NCI-H322M lung cancer cells; test: NCI human tumor cell line panel growth inhibition; assay type: cell-based; conditions: Homo sapiens, read-out: Log10 GI50 (converted)
# [6] = test system: CAKI-1 renal cancer cells; test: NCI human tumor cell line panel growth inhibition; assay type: cell-based; conditions: CAKI-1, renal cancer
# [7] = test system: NCI-H460 lung cancer cells; test: NCI human tumor cell line panel growth inhibition; assay type: cell-based
# [8] = test system: IGROV-1 ovarian cancer cells; test: NCI human tumor cell line panel growth inhibition; assay type: cell-based
# [9] = test system: RXF-393 renal cancer cells; test: NCI human tumor cell line panel growth inhibition; assay type: cell-based; conditions: Homo sapiens, read-out: Log10 GI50 (converted)
# [10] = test system: COLO-205 colon cancer cells; test: NCI human tumor cell line panel growth inhibition; assay type: cell-based; conditions: Homo sapiens; COLO-205, colon cancer; read-out: Log10 GI50 (converted)
# [11] = test system: HCC-2998 colon cancer cells; test: NCI human tumor cell line panel growth inhibition; assay type: cell-based; conditions: Homo sapiens, read-out: Log10 GI50 (converted)
# A-498 renal cancer cells = test: NCI human tumor cell line panel growth inhibition; assay type: cell-based
# [12] = test system: LXPL-529 lung cancer cells; test: NCI human tumor cell line panel growth inhibition; assay type: cell-based
# [13] = test system: NCI-H23 lung cancer cells; test: NCI human tumor cell line panel growth inhibition; assay type: cell-based; conditions: read-out: Log10 GI50 (converted)
# HOP-18 lung cancer cells = test: NCI human tumor cell line panel growth inhibition; assay type: cell-based; conditions: Homo sapiens, read-out: Log10 GI50 (converted)
# DLD-1 colon cancer cells = test: NCI human tumor cell line panel growth inhibition; assay type: cell-based; conditions: Homo sapiens, read-out: Log10 GI50 (converted)
# UACC-62 melanoma cells = test: NCI human tumor cell line panel growth inhibition; assay type: cell-based
# [14] = test system: KM20L2 colon cancer cells; test: NCI human tumor cell line panel growth inhibition; assay type: cell-based
# U251 CNS cancer cells = test: NCI human tumor cell line panel growth inhibition; assay type: cell-based
# UACC-257 melanoma cells = test: NCI human tumor cell line panel growth inhibition; assay type: cell-based
# [15] = test system: RXF-631 renal cancer cells; test: NCI human tumor cell line panel growth inhibition; assay type: cell-based
# [16] = test system: OVCAR-5 ovarian cancer cells; test: NCI human tumor cell line panel growth inhibition; assay type: cell-based
# [17] = test system: ras-transformed human bronchial epithelial cells (TBE) tumor; test: In vivo antitumor activity, TBE cells implanted in athymic mice; parameters: species or system athymic mice (human tumor cells); conditions: 25 mg/kg i.p., 4.0 × 10^6 cells/mouse; for Number of Animals with Tumor: five mice
# Method: The experiments were carried out at Purdue University athymic mouse laboratory. Athymic mice were purchased from and maintained at the athymic mouse laboratory under […]. Tumor cells (TBE) were obtained from normal human bronchial epithelial cells transfected with plasmic H1 carrying v-Harvey-ras (H-ras) oncogene via protoplast fusion (G. H. Yoakum, J. F. Lechner, E. W. Gabrielson, B. E. Korba, L. Malan-Shibley, J. C. Willey, M. G. Valerio, A. M. Shamsuddin, B. F. Trump and C. C. Harris, Science 227, 1174, 1985. T. C. K. Chan, C.-j. Chang, N. M. Koonchanok and R.L. Geahlen, Biochem. Biophys. Res. Commun., 193, 1152, 1993. The TBE cells were implanted subcutaneously on day 0 of the experiment. Each test group consists of five mice. The compounds tested were dissolved in a saline solution or a saline solution containing 5% of dimethylsulfoxide and 10% cremphor EL (Sigma Chemical Company, St. Louis, Mo.), and were administered intraperitoneously starting on day 2. The solution was administered every four days for a total of four treatments. Tumor volumes were measured every week. The antitumor activity was measured as % of growth inhibition, which is defined by the percentage of the median tumor volume reduction per week of the treated mice divided by the median tumor volume per week of the controlled mice (Tables 9 and 10).
# SNB-75 CNS cancer cells = test: NCI human tumor cell line panel growth inhibition; assay type: cell-based
# [18] = Homo sapiens, read-out: Log10 GI50 (converted)
smiles,measurement,setting,value
OCc1ccc(-c2ccc(-c3ccsc3)s2)s1 [compound 660644],GI50,[1],0.002 µg/mL
same,GI50,[2],3.6 µg/mL
NCc1ccc(-c2ccc(-c3ccc(CN)s3)s2)s1 [compound 658110],GI50,[1],4 µg/mL
same,GI50,[2],10 µg/mL
OCc1ccc(-c2ccc(-c3cccs3)s2)s1 [drawing 30],GI50,[3]; [18],295 nM
same,GI50,SF-295 CNS cancer cells,33900 nM
same,GI50,SNB-19 CNS cancer cells,18600 nM
same,GI50,[4]; [18],117 nM
same,GI50,TK-10 renal cancer cells; [18],105 nM
same,GI50,[5],29500 nM
same,GI50,[6]; [18],27.5 nM
same,GI50,[7]; [18],490 nM
same,GI50,[8]; [18],42.7 nM
same,GI50,[9],31.6 nM
same,GI50,[10],912 nM
same,GI50,[11],36300 nM
same,GI50,"A-498 renal cancer cells; Homo sapiens, A498, read-out: Log10 GI50 (converted)",< 10 nM
same,GI50,[12]; [18],< 10 nM
same,GI50,[13],70800 nM
same,GI50,HOP-18 lung cancer cells,22400 nM
same,GI50,DLD-1 colon cancer cells,4470 nM
same,GI50,UACC-62 melanoma cells; [18],< 10 nM
same,GI50,"[14]; Homo sapiens, KM-20L2, read-out: Log10 GI50 (converted)",245 nM
same,GI50,"U251 CNS cancer cells; Homo sapiens, U-251, read-out: Log10 GI50 (converted)",148 nM
same,GI50,UACC-257 melanoma cells; [18],102 nM
same,GI50,[15]; [18],28.2 nM
same,GI50,[16]; [18],224 nM
O=Cc1ccc(-c2ccc(CO)s2)s1 [compound 647073],GI50,[1],0.05 µg/mL
same,GI50,[2],0.08 µg/mL
CC[N+](CC)(CC)Cc1ccc(-c2ccc(-c3cccs3)s2)s1 [compound 659561],GI50,[1],2 µg/mL
same,GI50,[2],5 µg/mL
O=Cc1ccc(-c2ccc(-c3sccc3CO)s2)s1 [compound 658876],GI50,[1],0.02 µg/mL
same,GI50,[2],0.4 µg/mL
NCc1ccc(-c2ccc(-c3ccc(CO)s3)s2)s1 [compound 656898],GI50,[1],0.02 µg/mL
same,GI50,[2],3 µg/mL
OCc1ccc(-c2ccc(CO)s2)s1 [compound 647452],GI50,[1],0.03 µg/mL
same,GI50,[2],0.6 µg/mL
NCc1ccc(-c2ccc(-c3cccs3)s2)s1 [compound 652866],GI50,[1],0.001 µg/mL
same,GI50,[2],0.01 µg/mL
O=Cc1ccc(-c2ccc(-c3ccc(C=O)s3)s2)s1 [compound 637394],GI50,[1],0.01 µg/mL
same,GI50,[2],0.2 µg/mL
OCc1ccc(-c2ccc(-c3cccs3)s2)s1 [compound 637388],GI50,[1],0.02 µg/mL
same,GI50,[2],3 µg/mL
O=Cc1ccc(-c2ccc(-c3sccc3C=O)s2)s1 [compound 658877],GI50,[1],0.03 µg/mL
same,GI50,[2],0.6 µg/mL
OCc1ccc(-c2ccc(-c3sccc3CO)s2)s1 [compound 658875],GI50,[1],0.002 µg/mL
same,GI50,[2],9.7 µg/mL
O=Cc1ccc(-c2ccc(-c3ccsc3)s2)s1 [compound 660643],GI50,[1],0.005 µg/mL
same,GI50,[2],2.4 µg/mL
O=Cc1ccc(-c2ccc(-c3ccc(CO)s3)s2)s1 [compound 647455],GI50,[1],0.002 µg/mL
same,Tumor Volume,[17]; week 1,0.0 mm^3
same,Number of Animals with Tumor,[17]; week 1,0
same,Tumor Volume,[17]; week 1.5,1.4 mm^3
same,Number of Animals with Tumor,[17]; week 1.5,1
same,Tumor Volume,[17]; week 2,5.2 mm^3
same,Number of Animals with Tumor,[17]; week 2,3
same,Slope,[17]; week 3,2.16 mm^3 /week
same,Tumor Growth Inhibition,[17]; week 3,57%
same,Tumor Volume,[17]; week 3,5.8 mm^3
same,Number of Animals with Tumor,[17]; week 3,4
same,Slope,[17]; week 4,1.75 mm^3 /week
same,Tumor Growth Inhibition,[17]; week 4,60%
same,Tumor Volume,[17]; week 4,5.6 mm^3
same,Number of Animals with Tumor,[17]; week 4,4
same,Slope,[17]; week 5,1.34 mm^3 /week
same,Tumor Growth Inhibition,[17]; week 5,61%
same,Tumor Volume,[17]; week 5,5.4 mm^3
same,Number of Animals with Tumor,[17]; week 5,4
same,Slope,[17]; week 6,1.60 mm^3 /week
same,Tumor Growth Inhibition,[17]; week 6,45%
same,Tumor Volume,[17]; week 6,10.6 mm^3
same,Number of Animals with Tumor,[17]; week 6,5
same,Slope,[17]; week 8.6,2.07 mm^3 /week
same,Tumor Growth Inhibition,[17]; week 8.6,21%
same,Tumor Volume,[17]; week 8.6,18.8 mm^3
same,Number of Animals with Tumor,[17]; week 8.6,5
same,GI50,[2],0.1 µg/mL
O=Cc1ccc(-c2ccc(-c3cccs3)s2)s1 [compound 637393],GI50,[1],0.03 µg/mL
same,GI50,[2],0.2 µg/mL
OCc1csc(-c2ccc(-c3ccc(CO)s3)s2)c1 [compound 658878],GI50,[1],0.002 µg/mL
same,GI50,[2],8 µg/mL
O=Cc1ccc(-c2ccc(-c3cc(CO)cs3)s2)s1 [compound 658879],GI50,[1],0.004 µg/mL
same,GI50,[2],6.2 µg/mL
O=Cc1ccc(-c2ccc(-c3ccc(C=O)s3)s2)s1 [drawing 35],Log10 GI50,[3],-4.74 M
same,Log10 GI50,SNB-75 CNS cancer cells,-4.14 M
same,Log10 GI50,[4],-5.76 M
same,Log10 GI50,TK-10 renal cancer cells,-5.29 M
same,Log10 GI50,[6],-5.88 M
same,Log10 GI50,[7],-5.62 M
same,Log10 GI50,[8],-5.15 M
same,Log10 GI50,A-498 renal cancer cells,-5.93 M
same,Log10 GI50,[12],-5.95 M
same,Log10 GI50,UACC-62 melanoma cells,-6.46 M
same,Log10 GI50,[14],-4.39 M
same,Log10 GI50,U251 CNS cancer cells,-6.09 M
same,Log10 GI50,UACC-257 melanoma cells,-5.72 M
same,Log10 GI50,[15],-4.03 M
same,Log10 GI50,[16],-4.68 M
